Measurements reported in patent publication US20230312605A1, “PYRROLO[2,1-F][1,2,4]TRIAZINES AND PREPARATION AND USES THEREOF” (BioSplice Therapeutics, Inc., priority 2021, published 2023).

The molecules below were run against recombinant DYRK1A kinase (Homo sapiens (Human), UniProt Q13627) (assay: DYRK1A kinase assay (Ser/Thr 18 peptide Z-lyte FRET assay)). Settings: recombinant DYRK1A 0.25 µg/mL, ATP 15 µM, Ser/Thr peptide 18 4 µM, one hour at room temperature; table head prints EC50, method says IC50.
Assay type: biochemical
Outline: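 Recombinant human DYRK1A (0.25 µg/mL) with 15 µM ATP and 4 µM Ser/Thr 18 peptide was incubated 1 h at room temperature with compound (11-point, 10 µM top), in duplicate. Z-lyte FRET read-out (coumarin/fluorescein emission ratio) was converted to percent phosphorylation; IC50 from non-linear regression.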

EC50 [nM] | SMILES
5100 | CC(C)(F)CNc1ncc2c(-c3ccc4ncc(C(=O)N5CCCC5)n4c3)ccn2n1 [Compound 74, (6-(2-((2-Fluoro-2-methylpropyl)amino)pyrrolo[2,1-f][1,2,4]triazin-5-yl)imidazo[1,2-a]pyridin-3-yl)(pyrrolidin-1-yl)methanone]
9 | FC(F)(CNc1ncc2c(-c3cnc4nccn4c3)ccn2n1)C1CC1 [Compound 232, N-(2-Cyclopropyl-2,2-difluoroethyl)-5-(imidazo[1,2-a]pyrimidin-6-yl) pyrrolo[2,1-f][1,2,4]triazin-2-amine]
7 | Cc1nc2ncc(-c3ccn4nc(NC5CCN(C6COC6)CC5)ncc34)cc2n1CC(F)F [Compound 1889, 5-(1-(2,2-Difluoroethyl)-2-methyl-1H-imidazo[4,5-b]pyridin-6-yl)-N-(1-(oxetan-3-yl)piperidin-4-yl)pyrrolo[2,1-f][1,2,4]triazin-2-amine]
27 | CC(C)(F)CNc1ncc2c(-c3ccc4nccnc4c3)ccn2n1 [Compound 1352, N-(2-Fluoro-2-methylpropyl)-5-(quinoxalin-6-yl)pyrrolo[2,1-f][1,2,4]triazin-2-amine]
14 | CO[C@H]1C[C@H](Nc2ncc3c(-c4cnc5nccn5c4)ccn3n2)C1 [Compound 240, 5-(Imidazo[1,2-a]pyrimidin-6-yl)-N-(trans-3-methoxycyclobutyl)pyrrolo [2,1-f] [1,2,4]triazin-2-amine]
14 | Cc1nc2ccc(-c3ccn4nc(N[C@H]5CC[C@@](C)(O)CC5)ncc34)nc2n1CC1COC1 [Compound 1875, cis-1-Methyl-4-((5-(2-methyl-3-(oxetan-3-ylmethyl)-3H-imidazo[4,5-b]pyridin-5-yl)pyrrolo[2,1-f][1,2,4]triazin-2-yl)amino)cyclohexan-1-ol]
4 | Cc1nc2ncc(-c3ccn4nc(NCC(C)(C)F)ncc34)cc2n1CC(F)F [Compound 642, 5-(1-(2,2-difluoroethyl)-2-methyl-1H-imidazo[4,5-b]pyridin-6-yl)-N-(2-fluoro-2-methylpropyl)pyrrolo[2,1-f][1,2,4]triazin-2-amine]
13 | Cc1nc2ccc(-c3ccn4nc(N[C@H]5CN(C6COC6)C[C@H]5F)ncc34)nc2n1CC(F)F [Compound 1944, 5-(3-(2,2-difluoroethyl)-2-methyl-3H-imidazo[4,5-b]pyridin-5-yl)-N-((3S,4R)-4-fluoro-1-(oxetan-3-yl)pyrrolidin-3-yl)pyrrolo[2,1-f][1,2,4]triazin-2-amine]
131 | Cc1nc2ccc(-c3ccn4nc(NC5CCC(F)(F)CC5)ncc34)nc2n1CC1CNC1 [Compound 1873, 5-(3-(Azetidin-3-ylmethyl)-2-methyl-3H-imidazo[4,5-b]pyridin-5-yl)-N-(4,4-difluorocyclohexyl)pyrrolo[2,1-f][1,2,4]triazin-2-amine]
393 | O[C@H]1CC[C@@H](Nc2ncc3c(-c4ccc5ncccc5c4)ccn3n2)CC1 [Compound 1322, cis-4-((5-(Quinolin-6-yl)pyrrolo[2,1-f][1,2,4]triazin-2-yl)amino)cyclohexan-1-ol]
3 | Cc1nc2ncc(-c3ccn4nc(NC5CCN(C(=O)C(C)C)CC5)ncc34)cc2n1CC(F)F [Compound 1888, 1-(4-((5-(1-(2,2-Difluoroethyl)-2-methyl-1H-imidazo[4,5-b]pyridin-6-yl)pyrrolo[2,1-f][1,2,4]triazin-2-yl)amino)piperidin-1-yl)-2-methylpropan-1-one]
3 | Cc1nc2ncc(-c3ccn4nc(N[C@H]5CCN(C)C[C@@H]5F)ncc34)cc2n1CC(F)F [Compound 1886, 5-(1-(2,2-Difluoroethyl)-2-methyl-1H-imidazo[4,5-b]pyridin-6-yl)-N-((3S,4S)-3-fluoro-1-methylpiperidin-4-yl)pyrrolo[2,1-f][1,2,4]triazin-2-amine]
3 | CCO[C@H]1CC[C@@H](Nc2ncc3c(-c4cnc5ncccc5c4)ccn3n2)CC1 [Compound 1541]
5 | [2H]C([2H])([2H])O[C@H]1CC[C@@H](Nc2ncc3c(-c4cnc5nccn5c4)ccn3n2)CC1 [Compound 1802, 5-(Imidazo[1,2-a]pyrimidin-6-yl)-N-(cis-4-(methoxy-ds)cyclohexyl)pyrrolo [2,1-f][1,2,4] triazin-2-amine]
3 | COCCO[C@H]1CC[C@@H](Nc2ncc3c(-c4cnc5nc(C)n(CC(F)F)c5c4)ccn3n2)CC1 [Compound 691, 5-(1-(2,2-Difluoroethyl)-2-methyl-1H-imidazo[4,5-b]pyridin-6-yl)-N-(cis-4-(2-methoxyethoxy)cyclohexyl)pyrrolo[2,1-f][1,2,4]triazin-2-amine]
2 | CC(=O)N[C@]1(C)C[C@@H](Nc2ncc3c(-c4ccc5nccnc5c4)ccn3n2)C1 [Compound 1981, N-((1r,3r)-1-methyl-3-((5-(quinoxalin-6-yl)pyrrolo[2,1-f][1,2,4]triazin-2-yl)amino)cyclobutyl)acetamide]

EC50 [nM] | SMILES
5 | Cc1nc2ccc(-c3ccn4nc(NC5CCN(C(=O)C6CC6)CC5)ncc34)nc2n1CC(F)F [Compound 1860]
5 | Cc1nc2ccc(-c3ccn4nc(NC5CCNCC5)ncc34)nc2n1CC(F)F [Compound 1916, 5-(3-(2,2-difluoroethyl)-2-methyl-3H-imidazo[4,5-b]pyridin-5-yl)-N-(piperidin-4-yl)pyrrolo[2,1-f][1,2,4]triazin-2-amine]
4 | CC(=O)N1CC[C@H](Nc2ncc3c(-c4ccc5nc(C)n(CC(F)F)c5n4)ccn3n2)[C@H](F)C1 [Compound 1952, 1-((3R,4S)-4-((5-(3-(2,2-Difluoroethyl)-2-methyl-3H-imidazo[4,5-b]pyridin-5-yl)pyrrolo[2,1-f] [1,2,4]triazin-2-yl)amino)-3-fluoropiperidin-1-yl)ethan-1-one]
9 | Cc1nc2ncc(-c3ccn4nc(NC5CCN(CCC(F)(F)F)CC5)ncc34)cc2n1CC(F)F [Compound 1883, 5-(1-(2,2-Difluoroethyl)-2-methyl-1H-imidazo[4,5-b]pyridin-6-yl)-N-(1-(3,3,3-trifluoropropyl)piperidin-4-yl)pyrrolo[2,1-f][1,2,4]triazin-2-amine]
32 | CO[C@@H]1COCC[C@H]1Nc1ncc2c(-c3ccc4nc(C)n(CC(F)F)c4n3)ccn2n1 [Compound 1867, 5-(3-(2,2-Difluoroethyl)-2-methyl-3H-imidazo[4,5-b]pyridin-5-yl)-N-((3S,4R)-3-methoxytetrahydro-2H-pyran-4-yl)pyrrolo[2,1-f][1,2,4]triazin-2-amine]
3 | Cc1nc2ccc(-c3ccn4nc(NC5CC6(CCN(C)CC6)C5)ncc34)nc2n1CC(F)F [Compound 1836, 5-(3-(2,2-Difluoroethyl)-2-methyl-3H-imidazo[4,5-b]pyridin-5-yl)-N-(7-methyl-7-azaspiro[3.5]nonan-2-yl)pyrrolo[2,1-f][1,2,4]triazin-2-amine]
4 | FC1(CNc2ncc3c(-c4cnc5nccn5c4)ccn3n2)CCC1 [Compound 227, N-((1-Fluorocyclobutyl)methyl)-5-(imidazo[1,2-a]pyrimidin-6-yl)pyrrolo [2,1-f][1,2,4]triazin-2-amine]
7 | Cc1nc2ccc(-c3ccn4nc(NC5CCN(S(C)(=O)=O)CC5)ncc34)nc2n1CC(F)F [Compound 1861, 5-(3-(2,2-Difluoroethyl)-2-methyl-3H-imidazo[4,5-b]pyridin-5-yl)-N-(1-(methylsulfonyl)piperidin-4-yl)pyrrolo[2,1-f][1,2,4]triazin-2-amine]
9 | Cc1nc2ccc(-c3ccn4nc(NC5CCN(C(=O)[C@@H]6CC6(F)F)CC5)ncc34)nc2n1CC(F)F [Compound 1917, (S)-(2,2-Difluorocyclopropyl)(4-((5-(3-(2,2-difluoroethyl)-2-methyl-3H-imidazo[4,5-b]pyridin-5-yl)pyrrolo[2,1-f] [1,2,4]triazin-2-yl)amino)piperidin-1-yl)methanone]
14 | C[C@@H](Nc1ncc2c(-c3cnc4nccn4c3)ccn2n1)C(F)(F)F [Compound 219, (R)-5-(Imidazo[1,2-a]pyrimidin-6-yl)-N-(1,1,1-trifluoropropan-2-yl)pyrrolo [2,1-f][1,2,4]triazin-2-amine]
33 | Cc1nc2ccc(-c3ccn4nc(N[C@@H]5CCOC[C@H]5O)ncc34)nc2n1CC(F)F [Compound 1866, (3S,4R)-4-((5-(3-(2,2-Difluoroethyl)-2-methyl-3H-imidazo[4,5-b]pyridin-5-yl)pyrrolo[2,1-f][1,2,4]triazin-2-yl)amino)tetrahydro-2H-pyran-3-ol]
3 | Cc1nc2ccc(-c3ccn4nc(N[C@H]5C[C@@](C)(O)C5)ncc34)nc2n1CC(F)F [Compound 1819, cis-3-((5-(3-(2,2-Difluoroethyl)-2-methyl-3H-imidazo [4,5-b]pyridin-5-yl)pyrrolo[2,1-f] [1,2,4]triazin-2-yl)amino)-1-methylcyclobutan-1-ol]
529 | FC1(F)CCC(Nc2ncc3c(-c4ccc5nccnc5c4)ccn3n2)CC1 [Compound 1392, N-(4,4-Difluorocyclohexyl)-5-(quinoxalin-6-yl)pyrrolo[2,1-f][1,2,4]triazin-2-amine]
2 | Cc1nc2ncc(-c3ccn4nc(NC5CCN(CCF)CC5)ncc34)cc2n1CC(F)F [Compound 1881, 5-(1-(2,2-Difluoroethyl)-2-methyl-1H-imidazo[4,5-b]pyridin-6-yl)-N-(1-(2-fluoroethyl)piperidin-4-yl)pyrrolo[2,1-f][1,2,4]triazin-2-amine]
4 | O[C@H]1C[C@@H](Nc2ncc3c(-c4ccc5ncccc5c4)ccn3n2)C1 [Compound 1723, cis-3-((5-(Quinolin-6-yl)pyrrolo[2,1-f][1,2,4]triazin-2-yl)amino)cyclobutan-1-ol]
7 | Cc1nc2ccc(-c3ccn4nc(NC5CCN(C(=O)C6CCC(F)(F)CC6)CC5)ncc34)nc2n1CC(F)F [Compound 1953, (4,4-difluorocyclohexyl)(4-((5-(3-(2,2-difluoroethyl)-2-methyl-3H-imidazo[4,5-b]pyridin-5-yl)pyrrolo[2,1-f][1,2,4]triazin-2-yl)amino)piperidin-1-yl)methanone]
